Data reported in ChEMBL document CHEMBL1145006 (J Med Chem, 2003).
Positions of bridges follow the written chain, without caps; N, C: chain ends. Non-standard residues stand in square brackets, D forms with d. Residues, ends and D or L forms follow the SMILES beside them. *: point of attachment. Hyp = O=C(O)[C@@H]1C[C@@H](O)CN1; Bn = c1ccc(C*)cc1

How the values were obtained:
Assay type in all cases: cell-based
[1] = target: Somatostatin receptor type 1 (Homo sapiens, UniProt P30872); assay: Binding affinity towards human Somatostatin receptor type 1 (sst1) using Tyr11-[125I]-SRIF as radioligand was determined in CHO cells
Chain of Somatostatin receptor type 1 (P30872 whole entry): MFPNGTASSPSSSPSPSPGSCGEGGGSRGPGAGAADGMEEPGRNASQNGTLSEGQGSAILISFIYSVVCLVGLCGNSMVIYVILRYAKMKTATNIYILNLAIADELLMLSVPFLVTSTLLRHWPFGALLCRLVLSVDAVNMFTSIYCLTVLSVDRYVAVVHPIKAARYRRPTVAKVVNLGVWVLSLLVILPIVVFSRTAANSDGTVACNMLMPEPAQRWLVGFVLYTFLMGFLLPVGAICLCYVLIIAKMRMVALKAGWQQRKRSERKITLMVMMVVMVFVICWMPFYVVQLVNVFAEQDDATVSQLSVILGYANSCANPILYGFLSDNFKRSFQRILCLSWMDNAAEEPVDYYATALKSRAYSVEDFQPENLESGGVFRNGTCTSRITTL

[2] = target: Somatostatin receptor type 2 (Homo sapiens, UniProt P30874); assay: Binding affinity towards human Somatostatin receptor type 2 (sst2) using Tyr11-[125I]-SRIF as radioligand was determined in CHO cells
Chain of Somatostatin receptor type 2 (P30874 whole entry): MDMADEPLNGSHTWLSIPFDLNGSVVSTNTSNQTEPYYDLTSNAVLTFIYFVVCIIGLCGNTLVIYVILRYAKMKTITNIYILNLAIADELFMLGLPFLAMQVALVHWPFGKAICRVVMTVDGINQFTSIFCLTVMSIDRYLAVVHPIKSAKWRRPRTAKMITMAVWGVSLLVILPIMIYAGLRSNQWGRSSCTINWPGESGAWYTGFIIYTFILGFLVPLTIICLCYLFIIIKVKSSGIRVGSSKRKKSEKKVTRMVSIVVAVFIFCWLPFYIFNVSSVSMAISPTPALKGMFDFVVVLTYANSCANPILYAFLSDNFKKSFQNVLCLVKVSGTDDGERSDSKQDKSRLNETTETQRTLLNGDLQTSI

[3] = target: Somatostatin receptor type 4 (Homo sapiens, UniProt P31391); assay: Binding affinity towards human Somatostatin receptor type 4 (sst4) using Tyr11-[125I]-SRIF as radioligand was determined in CHO cells; details: for Log Ki: cho
Chain of Somatostatin receptor type 4 (P31391 whole entry): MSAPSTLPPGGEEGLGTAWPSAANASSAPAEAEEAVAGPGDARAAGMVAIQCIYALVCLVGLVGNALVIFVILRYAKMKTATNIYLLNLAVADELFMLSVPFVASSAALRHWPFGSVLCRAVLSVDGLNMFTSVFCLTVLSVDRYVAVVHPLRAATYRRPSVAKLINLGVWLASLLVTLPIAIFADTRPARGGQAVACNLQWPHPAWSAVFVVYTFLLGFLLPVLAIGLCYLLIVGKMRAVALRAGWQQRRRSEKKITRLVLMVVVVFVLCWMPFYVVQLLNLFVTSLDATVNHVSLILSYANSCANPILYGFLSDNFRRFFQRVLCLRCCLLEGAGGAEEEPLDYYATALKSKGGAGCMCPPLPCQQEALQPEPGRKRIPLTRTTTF

[4] = target: Somatostatin receptor type 3 (Homo sapiens, UniProt P32745); assay: Binding affinity towards human Somatostatin receptor type 3 (sst3) using Tyr11-[125I]-SRIF as radioligand was determined in CHO cells
Chain of Somatostatin receptor type 3 (P32745 whole entry): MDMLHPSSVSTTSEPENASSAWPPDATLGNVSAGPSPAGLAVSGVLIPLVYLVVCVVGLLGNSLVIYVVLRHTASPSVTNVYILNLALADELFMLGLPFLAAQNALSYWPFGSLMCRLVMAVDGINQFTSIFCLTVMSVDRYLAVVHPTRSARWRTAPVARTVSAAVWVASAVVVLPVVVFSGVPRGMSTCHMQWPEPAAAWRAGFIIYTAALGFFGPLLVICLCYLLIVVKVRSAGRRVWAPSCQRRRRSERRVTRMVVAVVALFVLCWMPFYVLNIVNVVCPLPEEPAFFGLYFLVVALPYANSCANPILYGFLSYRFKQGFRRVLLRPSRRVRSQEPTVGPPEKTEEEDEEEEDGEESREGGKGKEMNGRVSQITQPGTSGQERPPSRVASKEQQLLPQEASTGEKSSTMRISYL

[5] = target: Somatostatin receptor type 5 (Homo sapiens, UniProt P35346); assay: Binding affinity towards human Somatostatin receptor type 5 (sst5) using Tyr11-[125I]-SRIF as radioligand was determined in COS cell
Chain of Somatostatin receptor type 5 (P35346 whole entry): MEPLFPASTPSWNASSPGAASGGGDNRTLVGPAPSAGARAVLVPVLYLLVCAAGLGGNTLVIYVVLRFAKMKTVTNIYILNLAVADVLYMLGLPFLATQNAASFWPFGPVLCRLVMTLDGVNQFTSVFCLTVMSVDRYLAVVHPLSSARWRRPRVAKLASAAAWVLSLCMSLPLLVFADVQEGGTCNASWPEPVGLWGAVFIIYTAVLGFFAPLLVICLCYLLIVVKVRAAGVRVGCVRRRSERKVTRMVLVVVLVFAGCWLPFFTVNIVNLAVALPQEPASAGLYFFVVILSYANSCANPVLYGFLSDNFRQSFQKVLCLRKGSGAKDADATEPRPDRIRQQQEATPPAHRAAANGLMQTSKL

CC(C)[C@@H]1NC(=O)[C@H](CCCCN)NC(=O)[C@@H](Cc2c[nH]c3ccccc23)NC(=O)[C@H](Cc2ccc(O)cc2)NC(=O)[C@@H](NC(=O)[C@H](N)Cc2ccccc2)CSSC[C@@H](C(=O)N[C@@H](Cc2c[nH]c3ccccc23)C(N)=O)NC1=O [VAPREOTIDE] (H-[dF]CY[dW]KVCW-NH2; disulfide 2-7) showed a Ki [1] of 158 nM, a Ki [2] of 0.0794 nM and a Ki [3] of 158 nM. The Ki [4] was 20 nM.
C[C@H](N)C(=O)N[C@@H](C)C(=O)N[C@H]1CSSC[C@@H](C(N)=O)NC(=O)[C@H](CO)NC(=O)[C@H]([C@@H](C)O)NC(=O)[C@H](Cc2ccccc2)NC(=O)[C@H]([C@@H](C)O)NC(=O)[C@H](CCCCN)NC(=O)[C@H](Cc2c[nH]c3ccccc23)NC(=O)[C@H](Cc2ccccc2)NC(=O)[C@H](Cc2ccccc2)NC(=O)[C@H](CC(N)=O)NC(=O)[C@H](CCCCN)NC1=O (H-AACKNFFWKTFTSC-NH2; disulfide 3-14) gave a Ki [1] of 0.2 nM, a Ki [2] of 0.158 nM and a Log Ki [3] of over -9.7. It also gave a Ki [4] of 0.794 nM and a Ki [5] of 1.26 nM.
Work on C[C@@H](O)[C@@H]1NC(=O)[C@H](CCCCN)NC(=O)[C@@H](Cc2c[nH]c3ccccc23)NC(=O)[C@H](Cc2ccccc2)NC(=O)[C@@H]2CCCN2C(=O)[C@H](Cc2ccccc2)NC1=O yielded a Log Ki [3] of over -7.
With C[C@H](N)C(=O)NCC(=O)N[C@H]1CSSC[C@@H](C(N)=O)NC(=O)[C@H](C)NC(=O)[C@H]([C@@H](C)O)NC(=O)[C@H](Cc2ccccc2)NC(=O)[C@H]([C@@H](C)O)NC(=O)[C@H](CCCCN)NC(=O)[C@H](Cc2c[nH]c3ccccc23)NC(=O)[C@H](Cc2ccccc2)NC(=O)[C@H](Cc2ccccc2)NC(=O)[C@H](CC(N)=O)NC(=O)[C@H](CCCCN)NC1=O (H-AGCKNFFWKTFTAC-NH2; disulfide 3-14) the Ki [1] was 0.158 nM, the Ki [2] was 0.0794 nM and the Log Ki [3] was over -10. For the same compound, the Ki [4] was 0.631 nM and the Ki [5] was 0.794 nM.
CN(C)CCNC(=O)O[C@@H]1C[C@H]2C(=O)N[C@@H](Cc3ccccc3)C(=O)N[C@H](Cc3c[nH]c4ccccc34)C(=O)N[C@@H](CCCCN)C(=O)N[C@@H](Cc3ccc(OCc4ccccc4)cc3)C(=O)N[C@@H](Cc3ccccc3)C(=O)N2C1 gave a Ki [1] of 1.58 nM, a Ki [2] of 0.501 nM and a Log Ki [3] of over -7. It also gave a Ki [4] of 0.316 nM and a Ki [5] of 0.1 nM.
C[C@H](N)C(=O)NCC(=O)N[C@H]1CSSC[C@@H](C(N)=O)NC(=O)[C@H](CO)NC(=O)[C@H]([C@@H](C)O)NC(=O)[C@H](C)NC(=O)[C@H]([C@@H](C)O)NC(=O)[C@H](CCCCN)NC(=O)[C@H](Cc2c[nH]c3ccccc23)NC(=O)[C@H](Cc2ccccc2)NC(=O)[C@H](Cc2ccccc2)NC(=O)[C@H](CC(N)=O)NC(=O)[C@H](CCCCN)NC1=O (H-AGCKNFFWKTATSC-NH2; disulfide 3-14) gave a Ki [1] of 0.631 nM, a Ki [2] of 6.31 nM and a Log Ki [3] of over -9. For the same compound, the Ki [4] was 7.94 nM and the Ki [5] was 6.31 nM.
In the case of C[C@@H](O)[C@@H]1NC(=O)[C@H](CCCCN)NC(=O)[C@@H](Cc2c[nH]c3ccccc23)NC(=O)[C@H](Cc2ccccc2)NC(=O)[C@@H]2C[C@@H](O)CN2C(=O)[C@H](Cc2ccccc2)NC1=O (cyclo(F[Hyp]F[dW]KT)), the Ki [1] is reported as over 1000 nM, the Ki [2] is reported as 0.2 nM and the Ki [3] is reported as over 1000 nM. The Ki [4] was 200 nM and the Ki [5] was over 1000 nM.
In the case of NCCCC[C@@H]1NC(=O)[C@@H](Cc2c[nH]c3ccccc23)NC(=O)[C@H](Cc2ccc(O)cc2)NC(=O)[C@@H]2C[C@@H](OC(=O)NCCN)CN2C(=O)[C@H](Cc2ccccc2)NC(=O)[C@H](Cc2ccc(OCc3ccccc3)cc2)NC1=O, the Ki [1] is reported as 1.58 nM, the Ki [2] is reported as 0.794 nM and the Log Ki [3] is reported as over -7. For the same compound, the Ki [4] was 0.631 nM and the Ki [5] was 0.251 nM.
With NCCCC[C@@H]1NC(=O)[C@@H](Cc2c[nH]c3ccccc23)NC(=O)[C@H](CCCN=C(N)N)NC(=O)[C@@H]2C[C@@H](OC(=O)NCCN)CN2C(=O)[C@H](Cc2ccccc2)NC(=O)[C@H](Cc2ccc(OCc3ccccc3)cc2)NC1=O the Ki [1] was 6.31 nM, the Ki [2] was 10 nM and the Ki [3] was 316 nM. For the same compound, the Ki [4] was 20 nM and the Ki [5] was 0.398 nM.
NCCCC[C@@H]1NC(=O)[C@@H](Cc2c[nH]c3ccccc23)NC(=O)[C@H](Cc2ccccc2)NC(=O)[C@@H]2C[C@@H](O)CN2C(=O)[C@H](Cc2ccccc2)NC(=O)[C@H](Cc2ccc(OCc3ccccc3)cc2)NC1=O (cyclo(F[Hyp]F[dW]KY(Bn))) gave a Ki [1] of 63.1 nM, a Ki [2] of 0.794 nM and a Ki [3] of 316 nM. For the same compound, the Ki [4] was 1.58 nM and the Ki [5] was 0.316 nM.
Compound C[C@H](N)C(=O)NCC(=O)N[C@H]1CSSC[C@@H](C(N)=O)NC(=O)[C@H](CO)NC(=O)[C@H]([C@@H](C)O)NC(=O)[C@H](Cc2ccccc2)NC(=O)[C@H]([C@@H](C)O)NC(=O)[C@H](CCCCN)NC(=O)[C@H](C)NC(=O)[C@H](Cc2ccccc2)NC(=O)[C@H](Cc2ccccc2)NC(=O)[C@H](CC(N)=O)NC(=O)[C@H](CCCCN)NC1=O (H-AGCKNFFAKTFTSC-NH2; disulfide 3-14) has a Ki [1] of 1000 nM, a Ki [2] of 1000 nM and a Ki [3] of over 1000 nM. For the same compound, the Ki [4] was 1000 nM and the Ki [5] was 79.4 nM.
NCCCCCNC(=O)O[C@@H]1C[C@H]2C(=O)N[C@@H](Cc3ccccc3)C(=O)N[C@H](Cc3c[nH]c4ccccc34)C(=O)N[C@@H](CCCCN)C(=O)N[C@@H](Cc3ccc(OCc4ccccc4)cc3)C(=O)N[C@@H](Cc3ccccc3)C(=O)N2C1 gave a Ki [1] of 10 nM, a Ki [2] of 3.16 nM and a Ki [3] of 631 nM. The Ki [4] was 2 nM and the Ki [5] was 0.631 nM.
Compound C[C@H](N)C(=O)NCC(=O)N[C@H]1CSSC[C@@H](C(N)=O)NC(=O)[C@H](CO)NC(=O)[C@H]([C@@H](C)O)NC(=O)[C@H](Cc2ccccc2)NC(=O)[C@H]([C@@H](C)O)NC(=O)[C@H](C)NC(=O)[C@H](Cc2c[nH]c3ccccc23)NC(=O)[C@H](Cc2ccccc2)NC(=O)[C@H](Cc2ccccc2)NC(=O)[C@H](CC(N)=O)NC(=O)[C@H](CCCCN)NC1=O (H-AGCKNFFWATFTSC-NH2; disulfide 3-14) has a Ki [1] of 1000 nM, a Ki [2] of 1000 nM and a Ki [3] of over 1000 nM. The Ki [4] was 1000 nM and the Ki [5] was 100 nM.
C[C@H](N)C(=O)NCC(=O)N[C@H]1CSSC[C@@H](C(N)=O)NC(=O)[C@H](CO)NC(=O)[C@H]([C@@H](C)O)NC(=O)[C@H](Cc2ccccc2)NC(=O)[C@H]([C@@H](C)O)NC(=O)[C@H](CCCCN)NC(=O)[C@H](Cc2c[nH]c3ccccc23)NC(=O)[C@H](Cc2ccccc2)NC(=O)[C@H](Cc2ccccc2)NC(=O)[C@H](C)NC(=O)[C@H](CCCCN)NC1=O (H-AGCKAFFWKTFTSC-NH2; disulfide 3-14) showed a Ki [1] of 0.251 nM, a Ki [2] of 0.126 nM and a Log Ki [3] of over -9.7. The Ki [4] was 0.631 nM and the Ki [5] was 0.158 nM.
In the case of NCCCC[C@@H]1NC(=O)[C@@H](Cc2c[nH]c3ccccc23)NC(=O)[C@H](Cc2c[nH]cn2)NC(=O)[C@@H]2C[C@@H](OC(=O)NCCN)CN2C(=O)[C@H](Cc2ccccc2)NC(=O)[C@H](Cc2ccc(OCc3ccccc3)cc2)NC1=O, the Ki [1] is reported as 3.98 nM, the Ki [2] is reported as 0.794 nM and the Log Ki [3] is reported as over -7. The Ki [4] was 0.794 nM and the Ki [5] was 3.16 nM.
C[C@H](N)C(=O)NCC(=O)N[C@H]1CSSC[C@@H](C(N)=O)NC(=O)[C@H](CO)NC(=O)[C@H]([C@@H](C)O)NC(=O)[C@H](Cc2ccccc2)NC(=O)[C@H](C)NC(=O)[C@H](CCCCN)NC(=O)[C@H](Cc2c[nH]c3ccccc23)NC(=O)[C@H](Cc2ccccc2)NC(=O)[C@H](Cc2ccccc2)NC(=O)[C@H](CC(N)=O)NC(=O)[C@H](CCCCN)NC1=O (H-AGCKNFFWKAFTSC-NH2; disulfide 3-14) was tested, and the Ki [1] was 6.31 nM, the Ki [2] was 1 nM and the Log Ki [3] was over -8.4. It also gave a Ki [4] of 1.58 nM and a Ki [5] of 0.631 nM.
In the case of C[C@H](N)C(=O)NCC(=O)N[C@H]1CSSC[C@@H](C(N)=O)NC(=O)[C@H](CO)NC(=O)[C@H]([C@@H](C)O)NC(=O)[C@H](Cc2ccccc2)NC(=O)[C@H]([C@@H](C)O)NC(=O)[C@H](CCCCN)NC(=O)[C@H](Cc2c[nH]c3ccccc23)NC(=O)[C@H](Cc2ccccc2)NC(=O)[C@H](Cc2ccccc2)NC(=O)[C@H](CC(N)=O)NC(=O)[C@H](C)NC1=O (H-AGCANFFWKTFTSC-NH2; disulfide 3-14), the Ki [1] is reported as 0.794 nM, the Ki [2] is reported as 0.501 nM and the Log Ki [3] is reported as over -9.5. It also gave a Ki [4] of 2.51 nM and a Ki [5] of 1 nM.
C[C@H](N)C(=O)NCC(=O)N[C@H]1CSSC[C@@H](C(N)=O)NC(=O)[C@H](CO)NC(=O)[C@H](C)NC(=O)[C@H](Cc2ccccc2)NC(=O)[C@H]([C@@H](C)O)NC(=O)[C@H](CCCCN)NC(=O)[C@H](Cc2c[nH]c3ccccc23)NC(=O)[C@H](Cc2ccccc2)NC(=O)[C@H](Cc2ccccc2)NC(=O)[C@H](CC(N)=O)NC(=O)[C@H](CCCCN)NC1=O (H-AGCKNFFWKTFASC-NH2; disulfide 3-14) gave a Ki [1] of 0.501 nM, a Ki [2] of 1.26 nM and a Log Ki [3] of over -9.2. It also gave a Ki [4] of 0.631 nM and a Ki [5] of 0.398 nM.
In the case of CC(C)[C@@H]1NC(=O)[C@H](CCCCN)NC(=O)[C@@H](Cc2c[nH]c3ccccc23)NC(=O)[C@H](Cc2ccc(O)cc2)NC(=O)[C@H](C)N(C)C(=O)[C@H](Cc2ccccc2)NC1=O [SEGLITIDE], the Ki [1] is reported as over 1000 nM, the Ki [4] is reported as 31.6 nM and the Ki [5] is reported as 12.6 nM.
In the case of C[C@H](N)C(=O)NCC(=O)N[C@H]1CSSC[C@@H](C(N)=O)NC(=O)[C@H](CO)NC(=O)[C@H]([C@@H](C)O)NC(=O)[C@H](Cc2ccccc2)NC(=O)[C@H]([C@@H](C)O)NC(=O)[C@H](CCCCN)NC(=O)[C@H](Cc2c[nH]c3ccccc23)NC(=O)[C@H](C)NC(=O)[C@H](Cc2ccccc2)NC(=O)[C@H](CC(N)=O)NC(=O)[C@H](CCCCN)NC1=O (H-AGCKNFAWKTFTSC-NH2; disulfide 3-14), the Ki [1] is reported as 20 nM, the Ki [2] is reported as 20 nM and the Log Ki [3] is reported as over -8.7. For the same compound, the Ki [4] was 25.1 nM and the Ki [5] was 79.4 nM.
CC(C)[C@@H]1NC(=O)[C@H](CCCCN)NC(=O)[C@@H](Cc2c[nH]c3ccccc23)NC(=O)[C@H](Cc2ccc(O)cc2)NC(=O)[C@@H](NC(=O)[C@H](N)Cc2ccc3ccccc3c2)CSSC[C@@H](C(=O)N[C@H](C(N)=O)[C@@H](C)O)NC1=O [LANREOTIDE] showed a Ki [1] of 501 nM.
